A short description of data set [1]: T1 and T2 relaxivity, RADX (10 megahertz) NMR analyzer, 37° C. The data set is classed as physicochemical. On the procedure: T1 and T2 relaxivity curves of the complex of Example II were obtained using a RADX (10 megahertz) NMR analyzer. The RADX analyzer was thermally stabilized at 37° C. before performing any T1 or T2 measurements. Overall range tuning and mid-range calibration were performed on a 37° C. warmed T1 standard at the beginning of the experiment, according to manufacturer's instructions. Subsequent to calibration, T1 standards were tested to verify calibration and linearity.
Ten millimolar solutions of the complex were prepared in sterile water for injection ("SWFI") and in 4% human serum albumin ("HSA")/0.9% NaCl. A series of lower concentrations (0.25, 0.50, 1.0, 2.5 and 5.0 mM) were prepared to form a concentration curve. A sample of each prepared concentration was warmed to 37° C. in an NMR sample tube prior to assay. Triplicate T1 and T2 values were obtained on each dilution.
Separate linear regressions were determined using the reciprocal T1 and T2 mean values for the complex diluted in SWFI and 4% HSA. The relaxivity curves were generated by plotting the reciprocal T1 or T2 value against concentration. The following relaxation rates were determined for the complex of Example II: […]

Data set [2] deals with ICR mice. In words: acute intravenous toxicity (LD50) in ICR mice, 7-day observation. It is filed as in vivo. Conditions: for Deaths, Delayed (1-24 hr) / Deaths, Delayed (1-7 days) / Deaths, Immediate (0-1 hr) / Deaths, Total / Body Weight Change: 0.68 M; for Deaths, Total: deaths/animals. On the procedure:
The acute intravenous toxicity of the compound of Example II was determined as follows: ICR mice, at 1 to 4 per dose level, received single intravenous injections of the test substance via a lateral tail vein at the rate of approximately 1 ml/minute. The test substances were at concentrations chosen to result in dose volumes of 5 to 75 ml/kg body weight. Dosing began at a volume of 10 ml/kg. Dose adjustments up or down were made to closely bracket the estimated LD50 with 4 animals per group (2 males and 2 females). Observations of the mice were recorded at times 0, 0.5, 1,2,4 and 24 hours and once daily thereafter for up to 7 days post injection. On the 7th day post injection, the mice were euthanized, weighed and necropsied. Abnormal tissues were noted. At this time a decision was made as to whether any histopathology was to be performed and whether or not the tissues should be retained. Necropsies were also performed on mice expiring after 24 hours post-injection, except for dead mice found on the weekends. The LD50 values, along with 95% CI were calculated using a modified Behrens-Reed-Meunch method. The results for the complex of Example II are reported below:
Sex and Weight Range of Mice: Males(18.0-20.3 g) Females (19.0-21.7 g).

A short description of data set [3]: solubility in water. Conditions: glassy solid. It is filed as physicochemical. Here is the method: A 15% excess of the bis(2-methoxyethylamide) of EDTA produced by the procedure described in Example XI (1.1 g, 0.0026 mol) was dissolved in water (10 ml) and MnCO3 (0.27 g, 0.0023 mol) was added. Upon warming for 30 minutes, the solution became homogeneous. The solution was taken to dryness under reduced pressure.

We go through 2 compounds from US5130120A, “Paramagnetic DTPA and EDTA alkoxyalkylamide complexes as MRI agents” (Mallinckrodt Medical, Inc., priority 1988, dated 1992).

As usually defined, the LD50 is the dose at which mortality reaches 50%. With `COCCNC(=O)CN(CCN(CCN(CC(=O)[O-])CC(=O)NCCOC)CC(=O)[O-])CC(=O)[O-].[Gd+3]` [Example II, {N,N"-Bis[N-(2-methoxyethyl)-carbamoylmethyl]diethylenetriamine-N,N',N"-triaceto}gadolinium (III)], the “T1 Relaxation Rate” value in data set [1] (4% HSA/0.9% NaCl) was determined as 4400 M⁻¹ s⁻¹; in data set [1] (H2O (SWFI)) it was 4690 M⁻¹ s⁻¹. Further, the “T2 Relaxation Rate” value in data set [1] (4% HSA/0.9% NaCl) came to 6380 M⁻¹ s⁻¹; in data set [1] (H2O (SWFI)), 4810 M⁻¹ s⁻¹. Also, the “Deaths, Delayed (1-24 hr)” value in data set [2] (6.8 mmol/kg i.v., ICR mice) was found to be 0; in data set [2] (13.6 mmol/kg i.v., ICR mice), 0; in data set [2] (20.4 mmol/kg i.v., ICR mice) it was 0; in data set [2] (27.2 mmol/kg i.v., ICR mice), 0. Moreover, the “Deaths, Delayed (1-7 days)” value was determined as 0 in data set [2] (6.8 mmol/kg i.v., ICR mice); 0 in data set [2] (13.6 mmol/kg i.v., ICR mice); 0 in data set [2] (20.4 mmol/kg i.v., ICR mice). Besides, the “Deaths, Immediate (0-1 hr)” value in data set [2] (6.8 mmol/kg i.v., ICR mice) turned out to be 0; in data set [2] (13.6 mmol/kg i.v., ICR mice), 0; in data set [2] (20.4 mmol/kg i.v., ICR mice) it was 1; in data set [2] (27.2 mmol/kg i.v., ICR mice), 2; in data set [2] (34.0 mmol/kg i.v., ICR mice) it was 4. Also, the “Deaths, Total” value in data set [2] (6.8 mmol/kg i.v., ICR mice) is on record as 0/2; in data set [2] (13.6 mmol/kg i.v., ICR mice), 0/2; in data set [2] (20.4 mmol/kg i.v., ICR mice) it was 1/4; in data set [2] (27.2 mmol/kg i.v., ICR mice), 4/4; in data set [2] (34.0 mmol/kg i.v., ICR mice), 4/4. The “Body Weight Change” value is recorded as “+2.1 g” in data set [2] (6.8 mmol/kg i.v., female ICR mice); -1.1 g in data set [2] (6.8 mmol/kg i.v., male ICR mice); “+1.4 g” in data set [2] (13.6 mmol/kg i.v., female ICR mice); “+1.6 g” in data set [2] (13.6 mmol/kg i.v., male ICR mice); -3.2 g in data set [2] (20.4 mmol/kg i.v., female ICR mice); -1.1 g in data set [2] (20.4 mmol/kg i.v., male ICR mice). For the same compound, in data set [2] (7-day post-injection period, i.v., ICR mice), the “body weight gain of surviving mice” value was “failed to gain weight”. Also, the “95% Confidence Limits of LD50” value in data set [2] (ICR mice, single i.v., 7 days) lay in the range of 17.4 to 29.0 mmol/kg. The compound also displayed an LD50 in data set [2] (ICR mice, single i.v., 7 days post injection, modified Behrens-Reed-Meunch method) of 22.5 mmol/kg. Also, in data set [2] (one female dosed with 20.4 mmol/kg i.v.), the “gross organ abnormality at necropsy” value is “a "pale" colored liver”. Moreover, in data set [2] (other mice at 20.4 mmol/kg or lower, i.v.), the “gross organ abnormality at necropsy, other mice” value is listed as “No other mice at 20.4 mmol/kg or lower showed similar abnormalities”. Moreover, in data set [2] (preliminary tests, ICR mice), the “order of i.v. toxicity” value is reported as “low order of i.v. toxicity”.
Regarding `COCCNC(=O)CN(CCN(CC(=O)[O-])CC(=O)NCCOC)CC(=O)[O-].[Mn+2]` [Example X, {N,N'-Bis[N-(2-methoxyethyl)carbamoyl-methyl]-ethylenediamine-N,N'-diaceto}manganese(II)], in data set [3], the solubility in water result is “very soluble in water”.
